Experimental data from patent publication US6465494B1, “Methods for treatment of cystic fibrosis” (Cell Pathways, Inc., priority 2001, dated 2002).
Like-named read-outs stand apart in the source and are kept apart here.

Experiments:
[1] = target: T1, GST-cGB-PDE5 fusion protein (Homo sapiens, UniProt O76074); experiment: cGMP binding assay with GST-cGB-PDE5 fusion protein; details: for competition with cGMP binding to GST-cGB-PDE5 at high concentration: compound at high concentration, cGMP 2 μM
T1 construct: made in house; host or cells: E. coli BL21 (DE3)
From the text: RT-PCR method is used to obtain the cGB domain of PDE5 with forward and reverse primers designed from bovine PDE5A cDNA sequence (McAllister-Lucas L. M et al, J. Biol. Chem. 268, 22863-22873, 1993) and the selection among PDE 1-10 families. 5′-3′, Inc. kits for total RNA followed by oligo (dT) column purification of mRNA are used with HT-29 cells. […] It is then cloned into pGEX-5X-3 glutathione-S-transferase (GST) fusion vector (Pharmacia Biotech )with tac promoter, and EcoRI and XhoI cut sites. The fusion vector is then transfected into E. Coli BL21 (DE3) bacteria (Invitrogen). The transfected BL21 bacteria is grown to log phase, and then IPTG is added as an inducer. The induction is carried at 20° C. for 24 hrs. The bacteria are harvested and lysed. The soluble cell lysate is incubated with GSH conjugated Sepharose 4B (GSH-Sepharose 4B). The GST-cGB-PDE5 fusion protein can bind to the GSH-Sepharose beads, and the other proteins are washed off from beads with excessive cold PBS.
Then, the mixture is transferred to Brandel MB-24 cell harvester with GF/B as the filter membrane followed by 2 washes with 10 mL of cold 5 mM potassium buffer(pH 6.8). The membranes are then cut out and transferred to scintillation vials followed by the addition of 1 mL of H2O and 6 mL of Ready Safe™ liquid scintillation cocktail to each vial. The vials are counted on a Beckman LS 6500 scintillation counter.
The quenching by filter membrane or other debris are also calibrated.

PDE5 = PDE5 (Homo sapiens, UniProt O76074); experiment: cGMP PDE inhibition, 3H-cGMP hydrolysis: PDE5; format: biochemical; design: partially purified cGMP-specific PDE isolated from HT-29 cells; endogenous in cells; host or cells: HT-29
Procedure: (Thompson, W. J., Teraski, W. L., Epstein, P. M., Strada, S. J., Advances in Cyclic Nucleotide Research, 10:69-92, 1979, which is incorporated herein by reference). […] The mixture is incubated at 30° C. for 10 minutes with isolated PDE2 and/or PDE5. Reactions are terminated, for example, by boiling the reaction mixture for 75 seconds. After cooling on ice, 100 μl of 0.5 mg/mL snake venom (O. Hannah venom available from Sigma) is added and incubated for 10 minutes at 30° C. This reaction is then terminated by the addition of an alcohol, e.g. 1 mL of 100% methanol. Assay samples are applied to 1 mL Dowex 1-X8 column; and washed with 1 mL of 100% methanol. The amount of radioactivity in the breakthrough and the wash from the column is combined and measured with a scintillation counter. The degree of phosphodiesterase inhibition is determined by calculating the amount of radioactivity in drug-treated reactions and comparing against a control sample (a reaction mixture lacking the tested compound but with drug solvent).
Compounds of this invention are also PDE2 and PDE5 inhibitors as taught in part U.S. patent application Ser. No. 09/046,739 filed Mar. 24, 1998. […] The amount of radioactivity in the breakthrough and the wash from the columns in then measured with a scintillation counter. […]

native bovine PDE5 = native bovine PDE5 (Bos taurus, UniProt Q28156); details: read-out: Kd of cGMP binding, native bovine PDE5; cited from earlier work
U937 cells = experiment: apoptosis induction of U937 cells (active caspase 3 immunofluorescence); format: cell-based; details: 24 hours
Procedure: The U937 monocyte cell line was derived from a histocytic lymphoma and can be driven to differentiate into an ‘activated macrophage like’ state by treatment with 5nM phorbal ester (TPA). Treated U937 cells become adherent, increase their cytoplasmic volume and express macrophage-specific cell surface markers. The presence and level of PDE2 and 5 mRNA in both differentiated and non-differentiated U937 cells was confirmed by performing RT-PCR experiments on total RNA.
U937 cells (from ATCC Rockville, Md.) were grown in RPMI media supplemented with 5% FCS, glutamine, antibiotic/antimycotic and sodium pyruvate. Total RNA was isolated from two U937 cultures, one treated with 5nM TPA for 48 hours and one grown in normal media as listed above, using the Rouche High Pure RNA Isolation Kit (cat# 1 828 665) as per manufacturers protocol. cDNA was then synthesized from the total RNA using GibcoBRL Superscriptll (Cat # 18064-022) reverse transcriptase as per manufacturers protocol. The resulting cDNA was used as a template for RT-PCR reactions using primer sets specific for PDE2 (forward: […], reverse: […]) or PDE5 (forward: […], reverse: […]). mRNA for PDE2 and 5 were both present in the untreated U937 cells. Upon treatment with TPA, the relative amounts of PDE2 mRNA increased 5 fold. Therefore, U937 cells treated with TPA and driven to differentiate into an activated macrophage like state have elevated levels of PDE2 mRNA (see FIG. 1).
The presence of PDE2 and PDE5 protein within U937 cells was confirmed by indirect immunofluorescence (IIF). U937 cells were cultured as above. Two U937 cultures, one grown in the presence of 5 nM TPA for 48 hours and one grown in normal media were processed. All cultures were collected by centrifugation (Shandon Cytospin, 2 minutes @ 600 rpm) onto poly-L lysine-coated slides and immediately fixed in fresh 3% paraformaldehyde buffered in PBS for 10 minutes. Adherent cultures were grown on coverslips and fixed as above. […]
The level of apoptosis in U937 cells was quantified by scoring 500 consecutive cells for the presence of active caspase 3. […]

| SMILES | competition with cGMP in binding to the cGMP binding sites of GST-cGB-PDE5 ([1]; 3H-cGMP 2 μM, 22° C., 1 hour) | other results |
| --- | --- | --- |
| CCCCOC1C2OP(=O)(O)OCC2OC1n1cnc2c(N)ncnc21 (stereo not shown) [2′-O-butyl-cAMP] | did not compete | – |
| CCCCOC1C2OP(=O)(O)OCC2OC1n1cnc2c(=O)[nH]c(N)nc21 (stereo not shown) [2′-O-butyl-cGMP] | did not compete | – |
| Nc1ncnc2c1ncn2[C@@H]1O[C@@H]2COP(=O)(O)O[C@H]2[C@H]1O [Cyclic AMP] | – | competition with cGMP in binding to the cGMP binding sites of GST-cGB-PDE5 [1]: did not compete |
| O=c1[nH]cnc2c1ncn2[C@@H]1O[C@@H]2COP(=O)(O)O[C@H]2[C@H]1O [Cyclic IMP, cyclic IMP] | – | competition with cGMP binding to GST-cGB-PDE5 at high concentration [1]: can partially compete |
| CC1=C(CC(=O)NCc2ccccc2)c2cc(F)ccc2/C1=C\c1ccncc1 [Example 1, (Z)-5-Fluoro-2-Methyl-(4-Pyridinylidene)-3-(N-Benzyl)-Indenylacetamide] | – | IC50 (PDE5): 0.68 µM |
| Nc1nc2c(nc(Br)n2[C@@H]2O[C@@H]3COP(=O)(O)O[C@H]3[C@H]2O)c(=O)[nH]1 [Example 8-bromo-cGMP, 8-bromo-cGMP] | – | competition with cGMP binding to GST-cGB-PDE5 at high concentration [1]: can partially compete |
| O=C([O-])C1CCN(c2nc(NCc3ccc4c(c3)OCO4)c3cc(Cl)ccc3n2)CC1.[Na+] [Example E4021] | None of the PDE5 inhibitors showed any competition with cGMP | – |
| CSc1ccc(/C=C2/C(C)=C(CC(=O)O)c3cc(F)ccc32)cc1 [Sulindac sulfide, sulindac sulfide] | None of the PDE5 inhibitors showed any competition with cGMP | – |
| Nc1ccn([C@@H]2O[C@@H]3COP(=O)(O)O[C@H]3[C@H]2O)c(=O)n1 [cCMP, cyclic CMP] | did not compete | – |
| Nc1nc2c(ncn2[C@@H]2O[C@@H]3COP(=O)(O)O[C@H]3[C@H]2O)c(=O)[nH]1 [cGMP, cyclic 3′,5′-guanosine monophosphate] | – | Kd (native bovine PDE5): 1.3 µM; Kd ([1]; read-out: Kd of cGMP binding to GST-cGB-PDE5 fusion protein, two cGMP binding sites): 1.6 ± 0.2 µM |
| O=c1ccn([C@@H]2O[C@@H]3COP(=O)(O)O[C@H]3[C@H]2O)c(=O)[nH]1 [cUMP, cyclic UMP] | did not compete | – |
| CC1=C(CC(=O)O)c2cc(F)ccc2/C1=C\c1ccc(S(C)(=O)=O)cc1 [exisulind] | None of the PDE5 inhibitors showed any competition with cGMP | – |
| COc1ccc(C2CNC(=O)C2)cc1OC1CCCC1 (stereo not shown) [rolipram, reference compound] | – | levels of apoptosis (active caspase 3) (U937 cells; 0.5uM): No increase in the levels of apoptosis compared to normal background |
| CCCc1nn(C)c2c(=O)[nH]c(-c3cc(S(=O)(=O)N4CCN(C)CC4)ccc3OCC)nc12 [sildenafil, reference compound] | – | levels of apoptosis (active caspase 3) (U937 cells; 0.3nM): No increase in the levels of apoptosis compared to normal background |
| CCCOc1ccccc1-c1nc2nn[nH]c2c(=O)[nH]1 [zaprinast] | None of the PDE5 inhibitors showed any competition with cGMP | – |
